According to publication PMC11310113, “Development of a UPLC-MS/MS method for quantifying KPT-335 (Verdinexor) in feline plasma for a study of PK” (Frontiers in Veterinary Science, 2024):
Like-named read-outs stand apart in the source and are kept apart here.

Legend:
[1] = set-up: method as in PMID 30143046; conditions: day 14, cited from earlier work; for AUClast (AUC) / HL_Lambda_z / Tmax: dog (n = 4)
[2] = set-up: method as in PMID 24503695; conditions: healthy beagle dogs (n = 6), single dose 1.5 mg/kg BW p.o. after meals; cited from earlier work
[3] = Pharmacokinetic study of KPT-335 capsules in cats, single oral dose; format: in vivo, cat
Experimental: The recommended dose of KPT-335 for dogs is 1.5 mg/kg body weight (BW). To calculate the dose for cats, the average weight of the tested cats was substituted in the equation used for dogs, and the recommended dose was 2 mg/kg BW through body surface area (BSA) conversion ([20]). The formula was as follows: […]
where K is a constant determined for different animal species, such as a dog (11.0) and cat (8.7), and W is the BW (kg) of the animal. Km is approximated by the individual animal species taking the ratio between the mean weight (kg) and BSA (m^2), this value can be calculated using Formula 1. The average weight of the six tested cats was used in BW parameters, the dosage was calculated by Formula 2, and KPT-335 was weighed into capsules and administered to the animals. The cats were fasted for 12 h before and 2 h following drug administration. Potential adverse effects were monitored during the study. The capsules were administered orally as a single bolus to the back of the tongue via a dosing syringe, accompanied by 3–5 mL of water.
Samples of blood (1 mL) were collected from the brachial cephalic vein at 0.167, 0.333, 0.5, 0.75, 1, 1.5, 2, 4, 6, 8, 12, 24, 36, and 48 h pre- and post-oral dosing into an anticoagulant blood collection tube containig heparin sodium. Blood samples were centrifuged for 8 min at 1800 × g. The plasma layer was taken and divided evenly into two. The plasma samples were stored at −20°C until analysis (within 20 days of collection). For the pharmacokinetic parameters, the blood drug concentration-time data was analyzed by using WinNonlin software (version 8.1, United States). The elimination half-life (T1/2), the maximum plasma concentration of KPT-335 (Cmax), the time when the plasma concentration reached a maximum (Tmax), and the area under the concentration-time curve (AUC) were determined.

[4] = Stability of KPT-335 in cat plasma samples (UPLC-MS/MS); format: in vitro ADME; conditions: for recovery at 8 h: cat
Experimental: KPT-335 working solution was added to blank plasma, LQC, MQC, and HQC samples to investigate the room-temperature stability for 2 h, freeze–thaw stability with three times, autosampler stability for 24 h, and long-term stability of 20 days at −20°C. The stability of the stock solution for 20 days was also investigated.
Given that plasma is mostly neutral or alkaline, to optimize the stability of KPT-335 at room temperature and ensure the desirable result of the sample during the detection process, we carried out further experiments. There were four groups in the experiment. The first group was the normal preparation of the sample, and the second, third, and fourth groups were samples containing 0.01, 0.05, or 0.1% formic acid, respectively. All the samples were placed at room temperature for 12 h and then processed at the same time for detection.

[5] = average of all dogs (1.5 and 1.25 mg/kg BW)
[6] = cat (n = 6), 2 mg/kg BW p.o., single dose, fasted
[7] = plasma, cats, single oral dose of capsules 2 mg/kg BW

O=C(/C=C\n1cnc(-c2cc(C(F)(F)F)cc(C(F)(F)F)c2)n1)NNc1ccccn1 [KPT-335]
average T1/2 [1, 5]: 5 h | average Tmax [1, 5]: 5.3 h | AUClast (AUC) ([1]; 1.25 mg/kg BW p.o.): 1576.5 ng·h/mL | HL_Lambda_z ([1]; 1.25 mg/kg BW p.o.): 5 h | Tmax ([1]; 1.25 mg/kg BW p.o.): 5.3 h | AUClast (AUC) ([1]; 1.5 mg/kg BW p.o.): 2346.8 ng·h/mL | HL_Lambda_z ([1]; 1.5 mg/kg BW p.o.): 5 h | Tmax ([1]; 1.5 mg/kg BW p.o.): 5.3 h | AUCINF_obs [2]: 1810 ± 216 ng·h/mL | AUClast (AUC0-t) [2]: 1760 ± 223 ng·h/mL | Cmax [2]: 253 ± 88.3 ng/mL | HL_Lambda_z (T1/2) [2]: 3.88 ± 1.47 h | Tmax [2]: 3.83 ± 2.71 h | AUC_%Extrap_obs [3, 6]: 11.32 ± 6.56% | HL_Lambda_z [3, 6]: 5.16 ± 2.30 h | MRT last ([3]; plasma, po, cat (n = 6), 2 mg/kg BW p.o., single dose, fasted): 5.46 ± 2.14 h | k el ([3]; plasma, po, cat (n = 6), 2 mg/kg BW p.o., single dose, fasted, read-out: Lambda_z (converted)): 4.17e-05 s⁻¹ | AUC(0-inf) [3, 7]: 1590 ± 1000 ng·h/mL | AUC(0-t) [3, 7]: 1440 ± 965 ng·h/mL | Cmax [3, 7]: 240 ± 191 ng/mL | Tmax [3, 7]: 1.46 ± 0.51 h | half-life [3, 7]: 310 ± 138 min | room temperature stability accuracy ([4]; acidic plasma (formic acid added), room temperature, 12 h): still acceptable | recovery at 8 h ([4]; plasma, 4°C, read-out: sample recovery): > 80% | recovery at 8 h ([4]; plasma, 8 h at room temperature, read-out: sample recovery rate): 59 to 67.5% | recovery at 8 h ([4]; plasma, light-protected, read-out: recovery rate of light-protected samples): 60.4 to 63.2% | accuracy of stable samples at room temperature ([4]; plasma containing 0.1% formic acid, room temperature, 12 h): more than 85% | room temperature stability accuracy ([4]; plasma, room temperature, 2 h, all concentrations): met the requirement of ±15% | room temperature stability accuracy ([4]; plasma, room temperature, 8 h): did not meet the requirement of ±15% | room temperature stability result ([4]; plasma, room temperature, 24 h): not within the requirement of ±15%
